Laboratory results as given in PubChem BioAssay AID1963847 (Molecular Pharmacology Branch, DTP, NCI, 2024).

Test system: 415267-285-R-J2-PDC complex spheroid viability
Assay: Anticancer human tumor 415267-285-R-J2-PDC patient-derived breast carcinoma cell line growth inhibition [POLQ]
Conditions: for IC50: curve of first compound; for viability, T/C: stronger effect = lower value
Description: Multicellular complex tumor spheroid response to Polymerase (POL) inhibitors (novobiocin, ART-558, RP6685) in combination with a variety of drugs and investigational agents in selected tumor cell lines
The POL inhibitors (novobiocin, ART-558, and RP6685) were evaluated both individually and in combination with standard of care and investigational anticancer small molecules within a complex spheroid model of solid tumors. . Complex spheroids include a stromal component modeled by human endothelial cells (HUVEC) and fibroblasts modeled by human mesenchymal stem cells (MSCs). The concentration ranges selected for each drug and investigational agent were based upon clinically achievable concentrations if the clinical Cmax of the agent was known.
Compounds. The drugs and investigational agents: novobiocin (NSC847541), ART-558 (NSC835418), RP-6685 (NSC848927), peposertib (NSC802822), ceralasertib (NSC780249), elimusertib (NSC800525), camonsertib (NSC841442), AZD-1390 (NSC803789), olaparib (NSC753686), talazoparib (NSC767125), rucaparib (NSC756644), sotorasib (NSC818433), MRTX-1133 (NSC836407), SN-38 (NSC673596), topotecan (NSC609699), epotoside (NSC141540), doxorubicin (NSC123127), gemcitabine (NSC613327), 5-fluorouracil (NSC19893), paclitaxel (NSC125973), vemurafenib (NSC761431), MSA-2 (NSC828583), SN-011 (NSC837082), adavosertib (NSC754352), prexasertib (NSC758257), carboplatin (NSC241240) and oxaliplatin (NSC266046), were obtained from the National Cancer Institute (NCI) Developmental Therapeutics Program Chemical Repository (21). The FDA-approved anticancer drug set is available from the Developmental Therapeutics Program at https://dtp.cancer.gov/organization/dscb/obtaining/. […] The stock solutions were prepared in dimethyl sulfoxide (DMSO, Sigma-Aldrich, St. Louis, MO, cat. D2650), except for the platinum compounds which were prepared in saline (Quality Biological, Gaithersburg, MD, cat. 114-055-101), at 800-fold the tested concentration and stored at -70 degrees C prior to their use. All drugs and investigational agents were tested over a range starting from a high concentration at or near the clinical Cmax and decreasing in half-log increments. If the clinical Cmax for an agent had not been determined, the highest concentration tested was 10 microM, except for SN-38, which was tested at a high concentration of 1 microM.
Cell Culture. All cells were maintained in an incubator at 37 degrees C and 5% CO2 with 95% humidity. The PDC lines were cultured according to standard operating procedures established by the NCI PDMR (https://pdmr.cancer.gov). Table 3 of the manuscript, lists the cell lines along with the number of the three cell types plated to form the mct-spheroids and media for tumor cell growth. After thawing, all PDC lines, except 997537-175-T-J1-PDC and 415267-285-R-J2-PDC, were cultured in Matrigel-coated flasks prepared with a working solution of 1X Ham's F-12 nutrient mix, without supplementation (Thermo Fisher Scientific, cat. 11765054), 100 U/mL penicillin-streptomycin (Thermo Fisher Scientific, cat. 15140122), and 2.5% Matrigel (Corning Inc., Corning, NY, cat. 354248) for the first three passages. The two PDC lines 997537-175-T-J1-PDC and 415267-285-R-J2-PDC were cultured on uncoated flasks. The 857933-349-R-J2-PDC line was cultured in 6C/Colon 1B media containing advanced DMEM/F-12 (Thermo Fisher Scientific, cat. 12634028), 10 mM HEPES (Thermo Fisher Scientific, cat. 15630080), 1X GlutaMAX supplement (Thermo Fisher Scientific, cat. 35050061), 0.1 mg/mL primocin (InvivoGen, San Diego, CA, cat. ant-pm-2), 10% defined fetal bovine serum, heat inactivated (HyClone Laboratories Inc., Logan, UT, cat. SH30070.03HI), 50% L-WRN conditioned media (ATCC, cat. CRL-3276), 1.25 mM N-Acetyl-L-cysteine (Sigma-Aldrich, cat. A9165), 10 mM nicotinamide (Sigma-Aldrich, cat. N0636), 1X B-27 supplement (Thermo Fisher Scientific, cat. 17504044), 1X N-2 supplement (Thermo Fisher Scientific, cat. […]
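Also: spheroids exposed to compounds for one week before readout.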
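For viability, T/C in this document: luminescence used as stand-in measure of viable cells; 100% = DMSO vehicle control viability.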

SMILES: O=C(Nc1ccc(O)c(NS(=O)(=O)c2ccc(F)cc2)c1)c1ccc(-c2ccccc2)cc1 + COC1C(OC(N)=O)C(O)C(Oc2ccc3c(O)c(NC(=O)c4ccc(O)c(CC=C(C)C)c4)c(=O)oc3c2C)OC1(C)C
- IC50 (second compound 0.0316 µM): 8.51 µM
- IC50 (second compound 0.1 µM): 8.85 µM
- IC50 (second compound 0.316 µM): 8.8 µM
- IC50 (second compound 1 µM): 8.54 µM
- IC50 (second compound 3.16 µM): 8.17 µM
- IC50 (second compound 10 µM): > 10 µM
- viability, T/C (second compound 0.0316 µM, first compound 0.0316 µM): 97.7%
- viability, T/C (second compound 0.0316 µM, first compound 0.1 µM): 93%
- viability, T/C (second compound 0.0316 µM, first compound 0.316 µM): 94.8%
- viability, T/C (second compound 0.0316 µM, first compound 1 µM): 95.8%
- viability, T/C (second compound 0.0316 µM, first compound 3.16 µM): 93.6%
- viability, T/C (second compound 0.0316 µM, first compound 10 µM): 42.9%
- viability, T/C (second compound 0.1 µM, first compound 0.0316 µM): 95.8%
- viability, T/C (second compound 0.1 µM, first compound 0.1 µM): 101%
- viability, T/C (second compound 0.1 µM, first compound 0.316 µM): 87.6%
- viability, T/C (second compound 0.1 µM, first compound 1 µM): 114%
- viability, T/C (second compound 0.1 µM, first compound 3.16 µM): 94.6%
- viability, T/C (second compound 0.1 µM, first compound 10 µM): 44.3%
- viability, T/C (second compound 0.316 µM, first compound 0.0316 µM): 110%
- viability, T/C (second compound 0.316 µM, first compound 0.1 µM): 99.2%
- viability, T/C (second compound 0.316 µM, first compound 0.316 µM): 98.9%
- viability, T/C (second compound 0.316 µM, first compound 1 µM): 117%
- viability, T/C (second compound 0.316 µM, first compound 3.16 µM): 94.3%
- viability, T/C (second compound 0.316 µM, first compound 10 µM): 44.4%
- viability, T/C (second compound 1 µM, first compound 0.0316 µM): 90.6%
- viability, T/C (second compound 1 µM, first compound 0.1 µM): 108%
- viability, T/C (second compound 1 µM, first compound 0.316 µM): 95.7%
- viability, T/C (second compound 1 µM, first compound 1 µM): 104%
- viability, T/C (second compound 1 µM, first compound 3.16 µM): 93.3%
- viability, T/C (second compound 1 µM, first compound 10 µM): 42.9%
- viability, T/C (second compound 3.16 µM, first compound 0.0316 µM): 103%
- viability, T/C (second compound 3.16 µM, first compound 0.1 µM): 105%
- viability, T/C (second compound 3.16 µM, first compound 0.316 µM): 119%
- viability, T/C (second compound 3.16 µM, first compound 1 µM): 113%
- viability, T/C (second compound 3.16 µM, first compound 3.16 µM): 94.4%
- viability, T/C (second compound 3.16 µM, first compound 10 µM): 40.5%
- viability, T/C (second compound 10 µM, first compound 0.0316 µM): 118%
- viability, T/C (second compound 10 µM, first compound 0.1 µM): 110%
- viability, T/C (second compound 10 µM, first compound 0.316 µM): 103%
- viability, T/C (second compound 10 µM, first compound 1 µM): 98.5%
- viability, T/C (second compound 10 µM, first compound 3.16 µM): 92.5%
- viability, T/C (second compound 10 µM, first compound 10 µM): 48.5%
